Laboratory results reported in publication PMC12666239 (Chembiochem, 2025).
“And” between values parts separate entries of the source, which are not always exact repeats. Equal values may be shown once. “Also recorded” adds a separate entry of the source.

What was measured:
[1] = target: Nsp3b (SARS-CoV-2 macrodomain) (Severe acute respiratory syndrome coronavirus 2, UniProt P0DTD1); test: biochemical; type: binding
CHIKV (OPY1) = test: microbe, parasite or virus in culture; type: cell-based; settings: Chikungunya virus, Vero C1008, 48 h
CHIKV macrodomain [2] = target: T1, CHIKV macrodomain (Chikungunya virus, UniProt Q8JUX6); settings: cited from earlier work
T1 sequence (Q8JUX6 1334-1493 limits assumed): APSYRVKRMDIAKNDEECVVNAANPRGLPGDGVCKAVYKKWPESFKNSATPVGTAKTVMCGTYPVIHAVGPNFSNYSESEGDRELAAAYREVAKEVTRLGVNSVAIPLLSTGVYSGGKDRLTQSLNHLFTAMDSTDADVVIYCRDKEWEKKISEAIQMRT

Nsp3b [3] = target: T2, Nsp3b (Severe acute respiratory syndrome coronavirus 2, UniProt P0DTD1); type: biochemical, SARS-CoV-2
hMacroD2 = hMacroD2 (Homo sapiens, UniProt A1Z1Q3); type: binding
Sequence of hMacroD2 (A1Z1Q3 7-243): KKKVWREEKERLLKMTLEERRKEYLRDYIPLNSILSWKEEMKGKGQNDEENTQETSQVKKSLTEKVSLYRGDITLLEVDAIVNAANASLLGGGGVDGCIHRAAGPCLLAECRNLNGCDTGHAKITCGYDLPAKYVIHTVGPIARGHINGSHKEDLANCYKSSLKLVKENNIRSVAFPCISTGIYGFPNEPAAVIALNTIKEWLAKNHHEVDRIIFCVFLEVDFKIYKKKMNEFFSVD

in vitro [4] = settings: African green monkey
CHIKV macrodomain [5] = target: T1, CHIKV macrodomain; type: binding
[6] = target: Rubella virus (RuV) macrodomain (Rubella virus, UniProt Q86500); type: binding
Sequence of Rubella virus (RuV) macrodomain (Q86500 806-985 limits assumed): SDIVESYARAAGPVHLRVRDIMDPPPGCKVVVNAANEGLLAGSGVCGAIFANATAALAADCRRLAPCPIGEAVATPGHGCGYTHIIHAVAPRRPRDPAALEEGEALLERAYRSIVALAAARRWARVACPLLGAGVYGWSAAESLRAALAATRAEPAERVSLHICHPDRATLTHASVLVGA

in vitro [7] = settings: African green monkey; remark: listed apart in the source
MERS-CoV macrodomain [8] = target: T3, MERS-CoV macrodomain (Middle East respiratory syndrome-related coronavirus, UniProt K9N7C7); type: biochemical
T3 sequence (K9N7C7 1110-1276 limits assumed): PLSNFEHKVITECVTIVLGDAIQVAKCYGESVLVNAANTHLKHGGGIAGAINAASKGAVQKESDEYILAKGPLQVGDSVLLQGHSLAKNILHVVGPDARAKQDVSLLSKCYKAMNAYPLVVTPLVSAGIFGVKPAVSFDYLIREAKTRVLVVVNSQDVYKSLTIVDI

SARS-CoV macrodomain = SARS-CoV macrodomain (Severe acute respiratory syndrome coronavirus, UniProt P0C6X7); test: biochemical; type: binding
Nsp3b [9] = target: T2, Nsp3b; type: binding, SARS-CoV-2
MERS-CoV macrodomain [10] = target: T3, MERS-CoV macrodomain; test: biochemical; type: binding
SARS-CoV-2 B.1 = test: microbe, parasite or virus in culture; type: cell-based; settings: for EC50: Severe acute respiratory syndrome coronavirus 2, VeroE6/TMPRSS2, 48 h
Nsp3b [11] = settings: cited from earlier work

Nc1ncnc2c1ncn2[C@@H]1O[C@H](COP(=O)(O)OP(=O)(O)O)[C@@H](O)[C@H]1O [ADP]
Kd [1]: > 10000 µM

Nc1ncnc2c1ncn2[C@@H]1O[C@H](COP(=O)(O)O)[C@@H](O)[C@H]1O [AMP]
Kd [1]: 1900 to 2500 µM

Nc1ncnc2c1ncn2[C@@H]1O[C@H](COP(=O)(O)OP(=O)(O)NP(=O)(O)O)[C@@H](O)[C@H]1O [APPNHP]
Kd [1]: 1900 to 2500 µM

Nc1ncnc2c1ncn2[C@@H]1O[C@H](COP(=O)(O)OP(=O)(O)OP(=O)(O)O)[C@@H](O)[C@H]1O [ATP]
Kd [1]: 1900 to 2500 µM

NC(=O)c1nc(F)c[nH]c1=O [Favipiravir, reference compound]
EC50 (CHIKV (OPY1)): 11.3 µM

N#C[C@@]1(c2ccc3c(N)ncnn23)O[C@H](CO)[C@@H](O)[C@H]1O [GS‐441524]
interaction with CHIKV macrodomain (CHIKV macrodomain [2]): no significant interaction; also recorded: does not bind detectably
reduction of the k value versus free macrodomain (Nsp3b [3]): 33%

N#C[C@@]1(c2ccc3c(N)ncnn23)O[C@H](COP(=O)(O)O)[C@@H](O)[C@H]1O [RMP]
Kd [1]: ~10 µM

N#C[C@@]1(c2ccc3c(N)ncnn23)O[C@H](COS(N)(=O)=O)[C@@H](O)[C@H]1O [compound 3]
interaction by ITC (hMacroD2): no interaction was observed; also recorded: no binding was observed
CC50 (in vitro [4]): > 40 µM
interaction by ITC (CHIKV macrodomain [5]): no interaction was observed
interaction by ITC [6]: no interaction was observed
CC50 (in vitro [7]): > 40 µM
reduction of the k value versus free macrodomain (MERS-CoV macrodomain [8]): 16% and ≈ 16%
ΔG (SARS-CoV macrodomain): −7.52 kcal mol^–1
ΔH (SARS-CoV macrodomain): −12.5 ± 0.3 kcal mol^–1
−TΔS (SARS-CoV macrodomain): 4.96 kcal mol^–1
Kd (SARS-CoV macrodomain; K D): 3 µM and 3.08 µM
EC50 (CHIKV (OPY1)): 21.8 µM
ΔG (Nsp3b [9]): −8.28 kcal mol^–1
ΔH (Nsp3b [9]): −12.00 ± 0.07 and −12.00 kcal mol^–1 and −12.00 and −12.0 ± 0.07 kcal mol^–1
ΔH compared to GS-441524 (Nsp3b [9]): –6.75 kcal mol^−1
−TΔS (Nsp3b [9]): 3.71 kcal mol^–1
reduction of the k value versus free macrodomain (Nsp3b [3]): 47%
Kd (MERS-CoV macrodomain [10]): 104 ± 13 µM
ΔG (MERS-CoV macrodomain [10]): −5.43 kcal mol^–1
pKa (physchem): 9.37 ± 0.02
inhibition of SARS-CoV-2 (SARS-CoV-2 B.1): no measurable inhibition
EC50 (SARS-CoV-2 B.1): > 40 µM

CCC(CC)COC(=O)[C@H](C)N[P@](=O)(OC[C@H]1O[C@@](C#N)(c2ccc3c(N)ncnn23)[C@H](O)[C@@H]1O)Oc1ccccc1 [remdesivir, reference compound]
EC50 (SARS-CoV-2 B.1): 5.48 µM

ADP‐ribose [ADPr, reference compound]
reduction of the k value versus free macrodomain (MERS-CoV macrodomain [8]): 32% and ≈ 32%

α‐azido‐ADPr
IC50 (Nsp3b [11]): 0.49 µM

β‐O‐methyl‐ADPr
IC50 (Nsp3b [11]): 127 µM
